The text below walks through data of PMC9968691, “Perfluoroalkyl substances (PFASs) are substrates of the renal human organic anion transporter 4 (OAT4)” (Archives of Toxicology, 2022).

In series [1] the target is T1, human OAT4 (Homo sapiens, UniProt Q9NSA0).
T1 construct: expressed in transfected cells; host or cells: HEK293 cells transduced with recombinant baculovirus (CMV promoter)
T1 sequence (Q9NSA0 1-550): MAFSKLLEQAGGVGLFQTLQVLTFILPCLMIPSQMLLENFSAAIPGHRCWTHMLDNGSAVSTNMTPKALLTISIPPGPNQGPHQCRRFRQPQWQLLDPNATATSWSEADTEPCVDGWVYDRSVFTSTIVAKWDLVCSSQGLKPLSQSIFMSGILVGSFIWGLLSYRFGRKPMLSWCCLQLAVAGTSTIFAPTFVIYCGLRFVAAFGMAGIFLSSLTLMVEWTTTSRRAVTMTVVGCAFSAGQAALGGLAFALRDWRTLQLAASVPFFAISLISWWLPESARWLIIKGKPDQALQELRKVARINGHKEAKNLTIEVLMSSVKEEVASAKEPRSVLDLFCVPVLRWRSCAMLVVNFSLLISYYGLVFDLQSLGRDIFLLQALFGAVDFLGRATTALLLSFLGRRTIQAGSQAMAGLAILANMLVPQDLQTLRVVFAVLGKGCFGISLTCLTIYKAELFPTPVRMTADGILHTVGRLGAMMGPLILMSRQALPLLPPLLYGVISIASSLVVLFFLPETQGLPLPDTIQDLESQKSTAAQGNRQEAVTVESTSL
Kind of series: OAT4-mediated cellular uptake kinetics (Michaelis–Menten) in OAT4-transfected vs control-transfected HEK293 cells. Type of series: cell-based. To be noted: OAT4-transfected minus control-transfected HEK293 cells, 1 min exposure, 1-300 µM; best-fit value (standard error).
Description: OAT4- and control-transfected cells were exposed for 1 min to a range of PFAS concentrations (1, 3, 10, 30, 100 and 300 µM) and cellular amounts were determined.
OAT4-transfected cells and control-transfected cells were exposed for 1 min to a range of PFAS concentrations and cellular amounts were determined. Amounts obtained in control-transfected cells were subtracted from amounts obtained in OAT4-transfected cells to obtain OAT4-mediated cellular uptake rates.

Series [2] has as its target T1, human OAT4. The series is described as follows: Screening of cellular PFAS accumulation in OAT4-transfected vs control-transfected HEK293 cells (PFAS mixture). In kind it is cell-based. The conditions noted are these: for Transport by OAT4 (cellular PFAS level in OAT4-transfected vs control-transfected cells; substantial = at least twofold higher): PFAS mixture, each 1 µM, 10 min; for OAT4 substrate: yes/no as identified in vitro in this study. An excerpt:
(§1) The recombinant baculoviruses that contain the cDNA of human transporters OAT4 and URAT1 downstream of a cytomegalovirus (CMV) promotor were generated as previously described (Smeets et al. [2020]). As a negative control, baculovirus containing the gene for enhanced yellow fluorescence protein (eYFP) was produced similarly. Moreover, transduction of HEK293 cells and uptake assays were essentially performed as previously described (Smeets et al. [2020]). The culture medium was removed and cells were washed with buffer (HBSS plus 10 mM HEPES, pH 7.4). Uptake was initiated by replacing this solution with 150 µL of fresh transport buffer (HBSS (Life Technologies Invitrogen (Carlsbad, CA, USA))-HEPES (Sigma-Aldrich), pH 7.4) supplemented with the PFASs for 10 min. To terminate the reaction, transport buffer was replaced with 400 µL ice-cold HBSS-HEPES buffer containing 0.5% BSA (m/v; Roche Diagnostics GmbH (Mannheim, Germany)), after which the cells were washed twice with ice-cold HBSS-HEPES. Cellular PFAS concentrations were determined based on the method described by Rosenmai et al. ([2018]). Briefly, cells were solubilised in 250 µL lysis buffer and cell lysates were stored in Eppendorf tubes at − 80 °C and defrozen when needed for LC–MS analysis and for quantification of the protein concentration.
(§2) To 50 μL cell lysate, 850 μL methanol (Actu-All Chemicals, Oss, The Netherlands) containing internal standards (^13C4-PFHpA, ^13C4-PFOA, ^13C5-PFNA, ^13C2-PFDA, ^13C3-PFBS, ^18O2-PFHxS and ^13C4-PFOS (Wellington Laboratories, Canada) was added. These dilutions were vortexed well before centrifugation at maximum speed for 10 min at 4 °C. PFAS concentrations in the supernatant were determined using LC–MS/MS analysis. If required, samples were further diluted with methanol and containing internal standards. LC–MS/MS analysis was based on a Shimadzu UHPLC system containing: 2 pumps (LC 20AD xr); column oven (Shimadzu CTO-20AC); pump switch (Shimadzu FCV-11AL); degasser (Shimadzu DGU-20A3); and sample tray holder (Shimadzu SIL-20 AC XR model) (Shimadzu Corporation, Kyoto, Japan). An Acquity BEH-C18 analytical column (50 × 2.1 mm i.d., 1.7 μm, Waters, Milford, MA, USA) was used to separate the PFASs at a column temperature of 35 °C. In addition, a symmetry C18 analytical column (50 × 2.1 mm i.d., 5 µm, Waters, Milford, MA, USA) was used as a guard column, placed between the pump and the injector valve to isolate and delay interferences out of the LC system. The mobile phase consisted of 2 mM ammonium acetate (Merck Millipore, Darmstadt, Germany) in Milli-Q water (prepared using a Milli-Q system with a resistivity of at least 18.2 MΩ cm^−1 (Merck Millipore)) (mobile phase A) and Acetonitrile ULC/MS grade (Actu-All Chemicals, Oss, The Netherlands) (mobile phase B). The injection volume used was 20 μL. The chromatographic gradient was operated at a flow rate of 0.3 mL min^−1 starting from 25% mobile phase B in the first 0.1 min, a linear increase to 100% B in 6 min with a final hold of 2.5 min. The gradient was returned to 25% B within 0.1 min for 3.9 min to equilibrate before the next injection, resulting in a total run of 12.5 min.
(§3) Cellular PFAS content was normalised to cellular protein. To that end, from each cell lysate, 25 µL was used to determine the protein concentration (technical duplicate) using the Pierce BCA Protein Assay Kit (Thermo Scientific, Waltham, MA). First, samples were diluted two times with lysis buffer directly in a 96-wells plate (PS, F-bottom, clear; Greiner Bio-One, Alphen aan de Rijn, The Netherlands), and in each plate, a BSA standard curve (0.05–2 mg mL^−1 in lysis buffer) was included allowing protein quantification of the samples. The manufacturer’s protocol was followed for the subsequent steps and absorbance was measured using a microplate reader (Synergy™ HT BioTek, Winooski, VT) at 562 nm. […]

The target in a further series is T2, human URAT1 (Homo sapiens, UniProt Q96S37).
T2 construct: expressed in transfected cells; host or cells: HEK293 cells transduced with recombinant baculovirus (CMV promoter)
T2 sequence (Q96S37 1-553): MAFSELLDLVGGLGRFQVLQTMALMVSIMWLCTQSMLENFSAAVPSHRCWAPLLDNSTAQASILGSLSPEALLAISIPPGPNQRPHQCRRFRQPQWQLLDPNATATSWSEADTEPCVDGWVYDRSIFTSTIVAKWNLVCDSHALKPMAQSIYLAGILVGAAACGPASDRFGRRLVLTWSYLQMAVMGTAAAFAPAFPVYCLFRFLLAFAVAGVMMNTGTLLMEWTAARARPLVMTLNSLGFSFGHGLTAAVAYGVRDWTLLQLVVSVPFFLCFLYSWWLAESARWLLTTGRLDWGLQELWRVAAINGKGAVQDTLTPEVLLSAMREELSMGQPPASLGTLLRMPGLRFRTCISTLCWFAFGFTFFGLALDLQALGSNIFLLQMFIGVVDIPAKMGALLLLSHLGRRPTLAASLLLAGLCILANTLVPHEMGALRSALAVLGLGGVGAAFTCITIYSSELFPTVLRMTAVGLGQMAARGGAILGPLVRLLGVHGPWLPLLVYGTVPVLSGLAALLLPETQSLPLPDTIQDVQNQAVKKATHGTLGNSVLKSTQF
Kind of series: Screening of cellular PFAS accumulation in URAT1-transfected vs control-transfected HEK293 cells (PFAS mixture). Type of series: cell-based. The conditions noted are these: yes/no as identified in vitro in this study.
Description: as §1, §2, §3

The subject of a further series is albumin. To be noted: ref Allendorf et al. (2019); cited from earlier work.
Series [3] concerns URAT1. Also on record: method as in Iwanaga et al. 2005; Morrissey et al. 2012. The conditions noted are these: probe substrate; ref Iwanaga et al. 2005; Morrissey et al. 2012; cited from earlier work.
In series [4] the test system is OAT4. Also on record: method as in Kimura et al. 2002; Morrissey et al. 2012. The conditions noted are these: probe substrate; ref Kimura et al. 2002; Morrissey et al. 2012; cited from earlier work.
The conditions of series [5]: (average) serum half-life; ref Xu et al. (2020) for PFHpA; Olsen et al. (2007), Li et al. (2018), Xu et al. (2020) for PFOA, PFHxS, PFOS; Olsen et al. (2009) for PFBS; cited from earlier work.
The test system of series [6] is OAT4. Details: method as in Yang et al. 2010. To be noted: OAT4-expressing CHO cells; ref Yang et al. 2010; cited from earlier work.
Series [7] relates to URAT1. Also on record: method as in Yang et al. 2010. To be noted: URAT1-expressing HEK293 cells; ref Yang et al. 2010; cited from earlier work.

Entries after “also recorded” stand apart in the source; their conditions may differ. Marks after values point to notes of the source that are not given here.

As to `O=C(O)C(F)(F)C(F)(F)C(F)(F)C(F)(F)C(F)(F)C(F)(F)C(F)(F)C(F)(F)F` [PFNA, perfluorononanoic acid], the “Apparent Vmax” value at human OAT4 [1] was found to be 8.5 nmol min^−1 mg protein^−1. In addition, on human OAT4 [2], the “Transport by OAT4 (cellular PFAS level in OAT4-transfected vs control-transfected cells; substantial = at least twofold higher)” value is “substantial transport; also recorded: more than twofold increase” and the OAT4 substrate entry is given as “Yes”. For the same molecule, the URAT1 substrate result on human URAT1 is reported as “No”. For the same molecule, the “Reported albumin/water partition coefficients” value in the series on albumin was 4.3 L/kg.

Turning to `O=c1[nH]c(=O)c2[nH]c(=O)[nH]c2[nH]1` [Uric acid, uric acid], the URAT1 substrate result with URAT1 [3] was “Yes”.

As for `CCCCC[C@H](O)/C=C/[C@H]1[C@H](O)CC(=O)[C@@H]1C/C=C\CCCC(=O)O` [Prostaglandin E2, prostaglandin E2], in the series with OAT4 [4], the OAT4 substrate entry is given as “Yes”.

With `O=S(=O)(O)C(F)(F)C(F)(F)C(F)(F)C(F)(F)C(F)(F)C(F)(F)C(F)(F)C(F)(F)F` [PFOS, perfluorooctane sulfonate], on human OAT4 [1], the “Apparent Vmax” value was found to be 2.2 nmol min^−1 mg protein^−1. Moreover, on human OAT4 [2], the “Transport by OAT4 (cellular PFAS level in OAT4-transfected vs control-transfected cells; substantial = at least twofold higher)” value is on record as “substantial transport; also recorded: more than twofold increase” and the OAT4 substrate result is recorded as “Yes”. The URAT1 substrate result at human URAT1 is reported as “No”. Further, the “Reported albumin/water partition coefficients” value in the series with albumin is 4.7 L/kg. Besides, in [5], the “Reported half-life in humans” value is listed as 1.8–5.4^c years.

Regarding `O=C(O)C(F)(F)C(F)(F)C(F)(F)C(F)(F)C(F)(F)C(F)(F)C(F)(F)F` [PFOA, perfluorooctanoic acid], on human OAT4 [2], the “Transport by OAT4 (cellular PFAS level in OAT4-transfected vs control-transfected cells; substantial = at least twofold higher)” value was “substantial transport; also recorded: more than twofold increase” and the OAT4 substrate entry is “Yes”. Also, the URAT1 substrate entry at human URAT1 was “No”. Besides, in the series on OAT4 [6], the Km is 310 µM and the Vmax is given as 37 nmol min^−1 mg protein^−1. For the same molecule, in the series with URAT1 [7], the Michaelis-Menten constant (Km) is 64 µM and the Vmax was 0.32 nmol min^−1 mg protein^−1. Besides, the “Reported albumin/water partition coefficients” value in the series with albumin is 4.2 L/kg. Besides, the “Reported half-life in humans” value in series [5] is reported as 1.8–3.8^c years.

What is called Km is the substrate concentration at which the rate is half of its maximum.
